PubChem BioAssay (NCI)
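Each compound was tested at five concentrations against cells in 96-well plates for 48 hours. GI50 marks 50% less growth. TGI denotes the concentration required for complete inhibition of growth.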

Tests used:
Assay in all cases: inhibition of tumour cell growth, NCI panel, 48 h
786-0 renal = test system: 786-0 renal
A549 NSCLC = test system: A549 NSCLC
BT-549 breast = test system: BT-549 breast
CAKI-1 renal = test system: CAKI-1 renal
CCRF-CEM leukemia = test system: CCRF-CEM leukemia
COLO 205 colon = test system: COLO 205 colon
DU-145 prostate = test system: DU-145 prostate
EKVX NSCLC = test system: EKVX NSCLC
HCC-2998 colon = test system: HCC-2998 colon
HCT-116 colon = test system: HCT-116 colon
HCT-15 colon = test system: HCT-15 colon
HOP-62 NSCLC = test system: HOP-62 NSCLC
HOP-92 NSCLC = test system: HOP-92 NSCLC
HT29 colon = test system: HT29 colon
IGROV1 ovarian = test system: IGROV1 ovarian
KM12 colon = test system: KM12 colon
LOX IMVI melanoma = test system: LOX IMVI melanoma
M14 melanoma = test system: M14 melanoma
MALME-3M melanoma = test system: MALME-3M melanoma
MCF7 breast = test system: MCF7 breast
MDA-MB-231 breast = test system: MDA-MB-231 breast
MDA-MB-435 = test system: MDA-MB-435
MDA-N = test system: MDA-N
MOLT-4 leukemia = test system: MOLT-4 leukemia
NCI-H226 lung = test system: NCI-H226 lung
NCI-H23 lung = test system: NCI-H23 lung
NCI/ADR-RES ovarian = test system: NCI/ADR-RES ovarian
OVCAR-3 ovarian = test system: OVCAR-3 ovarian
OVCAR-5 ovarian = test system: OVCAR-5 ovarian
OVCAR-8 ovarian = test system: OVCAR-8 ovarian
PC-3 prostate = test system: PC-3 prostate
RPMI-8226 leukemia = test system: RPMI-8226 leukemia
RXF 393 renal = test system: RXF 393 renal
SF-268 CNS = test system: SF-268 CNS
SF-539 CNS = test system: SF-539 CNS
SK-MEL-2 melanoma = test system: SK-MEL-2 melanoma
SK-MEL-28 melanoma = test system: SK-MEL-28 melanoma
SK-MEL-5 melanoma = test system: SK-MEL-5 melanoma
SK-OV-3 ovarian = test system: SK-OV-3 ovarian
SN12C renal = test system: SN12C renal
SNB-75 CNS = test system: SNB-75 CNS
SR leukemia = test system: SR leukemia
SW-620 colon = test system: SW-620 colon
T-47D breast = test system: T-47D breast
TK-10 renal = test system: TK-10 renal
U251 CNS = test system: U251 CNS
UACC-257 melanoma = test system: UACC-257 melanoma
UACC-62 melanoma = test system: UACC-62 melanoma
A498 renal = test system: A498 renal
ACHN renal = test system: ACHN renal
HL-60(TB) leukemia = test system: HL-60(TB) leukemia
HS 578T breast = test system: HS 578T breast
K-562 leukemia = test system: K-562 leukemia
NCI-H460 lung = test system: NCI-H460 lung
NCI-H522 lung = test system: NCI-H522 lung
OVCAR-4 ovarian = test system: OVCAR-4 ovarian
SF-295 CNS = test system: SF-295 CNS
SNB-19 CNS = test system: SNB-19 CNS
UO-31 renal = test system: UO-31 renal

CCOC(=O)CCCOc1cc(-c2ccccc2F)nc2cc3c(cc12)OCO3
TGI (786-0 renal): > 100 µM | TGI (A549 NSCLC): > 100 µM | TGI (BT-549 breast): > 100 µM | TGI (CAKI-1 renal): > 100 µM | TGI (CCRF-CEM leukemia): > 100 µM | TGI (COLO 205 colon): > 100 µM | TGI (DU-145 prostate): > 100 µM | TGI (EKVX NSCLC): > 100 µM | TGI (HCC-2998 colon): 32.1 µM | GI50 (HCT-116 colon): > 100 µM | TGI (HCT-116 colon): > 100 µM | TGI (HCT-15 colon): 14.5 µM | TGI (HOP-62 NSCLC): > 100 µM | TGI (HOP-92 NSCLC): > 100 µM | TGI (HT29 colon): > 100 µM | TGI (IGROV1 ovarian): > 100 µM | TGI (KM12 colon): > 100 µM | TGI (LOX IMVI melanoma): > 100 µM | TGI (M14 melanoma): > 100 µM | TGI (MALME-3M melanoma): > 100 µM | TGI (MCF7 breast): > 100 µM | TGI (MDA-MB-231 breast): > 100 µM | TGI (MDA-MB-435): > 100 µM | TGI (MDA-N): > 100 µM | TGI (MOLT-4 leukemia): 98 µM | GI50 (NCI-H226 lung): 48.7 µM | TGI (NCI-H226 lung): > 100 µM | TGI (NCI-H23 lung): > 100 µM | TGI (NCI/ADR-RES ovarian): > 100 µM | GI50 (OVCAR-3 ovarian): 15 µM | TGI (OVCAR-3 ovarian): 55.7 µM | TGI (OVCAR-5 ovarian): > 100 µM | TGI (OVCAR-8 ovarian): > 100 µM | TGI (PC-3 prostate): > 100 µM | TGI (RPMI-8226 leukemia): > 100 µM | GI50 (RXF 393 renal): 25 µM | TGI (RXF 393 renal): > 100 µM | GI50 (SF-268 CNS): > 100 µM | TGI (SF-268 CNS): > 100 µM | TGI (SF-539 CNS): > 100 µM | TGI (SK-MEL-2 melanoma): > 100 µM | TGI (SK-MEL-28 melanoma): > 100 µM | TGI (SK-MEL-5 melanoma): > 100 µM | TGI (SK-OV-3 ovarian): > 100 µM | TGI (SN12C renal): > 100 µM | TGI (SNB-75 CNS): > 100 µM | TGI (SR leukemia): > 100 µM | TGI (SW-620 colon): > 100 µM | TGI (T-47D breast): > 100 µM | TGI (TK-10 renal): > 100 µM | TGI (U251 CNS): > 100 µM | TGI (UACC-257 melanoma): > 100 µM | TGI (UACC-62 melanoma): > 100 µM

CC(=O)O[C@H]1C(=O)[C@@]2(C)[C@H]([C@H](OC(=O)c3ccccc3)[C@]3(O)C[C@H](OC(=O)[C@H](O)[C@@H](NC(=O)C(C)(O)C(C)O)c4ccccc4)C(C)=C1C3(C)C)[C@]1(OC(C)=O)CO[C@@H]1C[C@@H]2O (some centres undefined)
TGI (786-0 renal): > 50 µM | TGI (A498 renal): > 50 µM | TGI (A549 NSCLC): > 50 µM | TGI (ACHN renal): > 50 µM | TGI (BT-549 breast): 3.45 µM | TGI (CAKI-1 renal): > 50 µM | TGI (CCRF-CEM leukemia): > 50 µM | TGI (COLO 205 colon): 0.254 µM | TGI (DU-145 prostate): > 12.1 µM | TGI (EKVX NSCLC): > 50 µM | TGI (HCC-2998 colon): 0.743 µM | TGI (HCT-15 colon): > 50 µM | TGI (HL-60(TB) leukemia): 298 nM | TGI (HOP-62 NSCLC): 5.21 µM | TGI (HS 578T breast): 737 nM | TGI (IGROV1 ovarian): > 50 µM | TGI (K-562 leukemia): > 50 µM | TGI (LOX IMVI melanoma): > 50 µM | TGI (M14 melanoma): > 50 µM | TGI (MALME-3M melanoma): > 50 µM | TGI (MDA-MB-231 breast): 43.1 µM | TGI (MDA-MB-435): 0.169 µM | TGI (MDA-N): 0.0744 µM | TGI (MOLT-4 leukemia): > 50 µM | TGI (NCI-H23 lung): > 50 µM | TGI (NCI-H460 lung): > 50 µM | TGI (NCI-H522 lung): 341 nM | TGI (NCI/ADR-RES ovarian): > 50 µM | TGI (OVCAR-3 ovarian): 0.437 µM | TGI (OVCAR-4 ovarian): > 50 µM | TGI (OVCAR-5 ovarian): 4.65 µM | TGI (OVCAR-8 ovarian): > 50 µM | TGI (PC-3 prostate): > 50 µM | TGI (RPMI-8226 leukemia): > 16.6 µM | TGI (RXF 393 renal): 1.81 µM | TGI (SF-268 CNS): > 50 µM | TGI (SF-295 CNS): 16.5 µM | TGI (SF-539 CNS): 0.49 µM | TGI (SK-MEL-28 melanoma): > 50 µM | TGI (SK-MEL-5 melanoma): > 50 µM | TGI (SK-OV-3 ovarian): 10.9 µM | TGI (SN12C renal): > 50 µM | TGI (SNB-19 CNS): > 50 µM | TGI (SNB-75 CNS): 0.398 µM | TGI (SR leukemia): > 15.9 µM | TGI (SW-620 colon): > 50 µM | TGI (T-47D breast): > 50 µM | TGI (TK-10 renal): > 50 µM | TGI (UACC-257 melanoma): > 50 µM | TGI (UACC-62 melanoma): > 50 µM | TGI (UO-31 renal): > 50 µM

Clc1cccc(/C=c2\nc(-c3ccccc3)n3c2nc2ccccc23)c1
TGI (786-0 renal): > 100 µM | TGI (A498 renal): > 100 µM | TGI (A549 NSCLC): > 100 µM | TGI (BT-549 breast): > 100 µM | TGI (CAKI-1 renal): > 100 µM | TGI (CCRF-CEM leukemia): > 100 µM | TGI (COLO 205 colon): > 100 µM | TGI (DU-145 prostate): > 100 µM | TGI (EKVX NSCLC): > 100 µM | TGI (HCT-116 colon): > 100 µM | TGI (HCT-15 colon): > 100 µM | TGI (HL-60(TB) leukemia): > 100000 nM | TGI (HOP-62 NSCLC): > 100 µM | TGI (HOP-92 NSCLC): 48.4 µM | TGI (HS 578T breast): > 100000 nM | TGI (HT29 colon): > 100 µM | TGI (IGROV1 ovarian): > 100 µM | TGI (K-562 leukemia): > 100 µM | TGI (KM12 colon): > 100 µM | TGI (LOX IMVI melanoma): > 100 µM | TGI (M14 melanoma): > 100 µM | TGI (MALME-3M melanoma): > 100 µM | TGI (MCF7 breast): > 100 µM | TGI (MDA-MB-231 breast): > 100 µM | TGI (MDA-MB-435): > 100 µM | TGI (MDA-N): > 100 µM | TGI (MOLT-4 leukemia): > 100 µM | TGI (NCI-H226 lung): > 100 µM | TGI (NCI-H23 lung): > 100 µM | TGI (NCI-H460 lung): > 100 µM | TGI (NCI/ADR-RES ovarian): > 100 µM | TGI (OVCAR-3 ovarian): > 100 µM | TGI (OVCAR-4 ovarian): > 100 µM | TGI (OVCAR-5 ovarian): > 100 µM | TGI (OVCAR-8 ovarian): > 100 µM | TGI (PC-3 prostate): > 100 µM | TGI (RPMI-8226 leukemia): > 100 µM | TGI (RXF 393 renal): > 100 µM | TGI (SF-268 CNS): > 100 µM | TGI (SF-295 CNS): > 100 µM | TGI (SF-539 CNS): > 100 µM | TGI (SK-MEL-2 melanoma): > 100 µM | TGI (SK-MEL-28 melanoma): > 100 µM | TGI (SK-MEL-5 melanoma): > 100 µM | TGI (SK-OV-3 ovarian): > 100 µM | TGI (SN12C renal): > 100 µM | TGI (SNB-19 CNS): > 100 µM | TGI (SNB-75 CNS): 81.2 µM | TGI (SR leukemia): > 100 µM | TGI (SW-620 colon): > 100 µM | TGI (TK-10 renal): > 100 µM | TGI (U251 CNS): > 100 µM | TGI (UACC-257 melanoma): > 100 µM | TGI (UACC-62 melanoma): > 100 µM | TGI (UO-31 renal): > 100 µM
